System: PANC-1 and MIA PaCa-2 pancreatic cancer cells
Test: Transwell invasion assay
Type: cell-based
Details: 24 h, concentration-dependent, vs control
Text: Figure S225. Compound 1a inhibited the migration, invasion and proliferation of pancreatic cancer cells. (A) The results of wound healing assays to investigate the effects of 1a on the migration ability against PANC-1 and MIA PaCa-2 pancreatic cancer cells. (B) The results of transwell assays to investigate the effects of 1a on the invasion ability. (C) Effects of 1a on the clonogenic ability. (D) EdU assays of 1a. (E) Western blot assays of 1a on biomarkers. Data are presented as mean ± SD, n […]
Approximately 50% of pancreatic cancer patients show distant metastases at the time […]
disease. To evaluate the inhibitory effects of majusculamide D (1a) on the migratory capabilities of pancreatic cancer cells (PANC-1 and MIA PaCa-2), wound healing assays […]
were performed (Figure S1A). […]
concentration-dependent manner. […]
inhibited the migration of these pancreatic cancer cells. Further validation with transwell […]
concentration-dependent manner compared to the control group (Figure S1B). Since cell migration and invasion are correlated with cancer metastasis, compound 1a may delay the progression of tumors’ local spread and distant metastasis by inhibiting the migration and invasion ability of pancreatic cancer cells. […]
Images were taken at 0 hour and 24 hours after treatment to record and analyzed by measuring the area of the wound at each time point using ImageJ. […]

CCCCC(C)CC(C)C(=O)N(C)C(Cc1ccc(OC)cc1)C(=O)NC(C(=O)N(C)C(C(=O)N1CC(O)CC1C(=O)N1C(=O)C=CC1C)C(C)C)C(C)OC(C)=O (stereo not shown) [Compound 1a, Majusculamide D]
cell invasion (transwell): significantly decreased cell invasion

From PMC11679793, “Structure-Activity Relationship Study of Majusculamide D: Overcoming Metabolic Instability and Severe Toxicity with a Fluoro Analogue” (Marine Drugs, 2024)
